Measurements from PMC5934670 (Nucleic Acids Research, 2018).

Tests used:
TorR = target: T1, TorR (Escherichia coli, UniProt P38684); assay: Genomic SELEX-chip, rise of specific DNA binding; details: phosphodonor, no TorS; phosphorylation itself not measured; covalent
T1 sequence (P38684 1-230): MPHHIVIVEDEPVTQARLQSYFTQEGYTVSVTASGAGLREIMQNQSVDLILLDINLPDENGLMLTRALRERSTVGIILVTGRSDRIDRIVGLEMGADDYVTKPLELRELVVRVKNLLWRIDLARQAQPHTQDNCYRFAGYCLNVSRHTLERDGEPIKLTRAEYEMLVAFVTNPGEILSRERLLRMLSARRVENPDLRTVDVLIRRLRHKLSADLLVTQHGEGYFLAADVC

KdpE = target: T2, KdpE (Escherichia coli, UniProt P21866); assay: Genomic SELEX-chip, rise of specific DNA binding; details: phosphodonor, no KdpD; phosphorylation itself not measured; covalent
T2 sequence (P21866 1-225): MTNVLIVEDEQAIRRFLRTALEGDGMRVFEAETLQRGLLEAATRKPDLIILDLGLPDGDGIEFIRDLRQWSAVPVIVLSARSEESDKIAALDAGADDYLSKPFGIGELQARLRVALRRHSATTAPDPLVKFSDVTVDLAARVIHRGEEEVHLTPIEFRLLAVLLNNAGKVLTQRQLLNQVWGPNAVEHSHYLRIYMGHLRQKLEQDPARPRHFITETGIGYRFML

LacI = LacI (Escherichia coli, UniProt P03023); assay: Genomic SELEX-chip, loss of DNA binding; details: inducer; increasing IPTG; lac operator DNA
NanR = target: T3, NanR (Escherichia coli, UniProt P0A8W0); assay: Genomic SELEX-chip, change of DNA-binding specificity; details: effector; genomic DNA library
T3 sequence (P0A8W0 1-263): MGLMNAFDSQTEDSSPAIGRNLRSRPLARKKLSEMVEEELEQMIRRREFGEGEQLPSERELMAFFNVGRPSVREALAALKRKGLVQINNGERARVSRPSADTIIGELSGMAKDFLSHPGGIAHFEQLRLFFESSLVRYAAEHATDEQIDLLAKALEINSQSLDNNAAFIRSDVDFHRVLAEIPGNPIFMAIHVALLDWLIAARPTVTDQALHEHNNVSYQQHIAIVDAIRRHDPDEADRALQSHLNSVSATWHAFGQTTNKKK

Sequence of LacI (P03023 whole entry): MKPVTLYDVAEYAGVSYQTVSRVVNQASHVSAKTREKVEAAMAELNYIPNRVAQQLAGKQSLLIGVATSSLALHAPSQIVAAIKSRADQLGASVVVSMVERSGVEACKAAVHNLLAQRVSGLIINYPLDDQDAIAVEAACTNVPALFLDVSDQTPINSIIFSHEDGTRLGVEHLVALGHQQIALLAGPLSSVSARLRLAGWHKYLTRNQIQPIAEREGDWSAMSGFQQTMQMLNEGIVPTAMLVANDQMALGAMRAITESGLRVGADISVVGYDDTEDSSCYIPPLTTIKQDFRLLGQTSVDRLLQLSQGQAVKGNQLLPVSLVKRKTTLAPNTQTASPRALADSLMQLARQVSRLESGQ

CC(=O)OP(=O)(O)O [AcP]
Genomic SELEX-chip, rise of specific DNA binding (TorR): the level of TorR binding to this target was higher in the presence of AcP
Genomic SELEX-chip, rise of specific DNA binding (KdpE): The binding affinity to this single target increased in the presence of AcP

CC(C)S[C@@H]1O[C@H](CO)[C@H](O)[C@H](O)[C@H]1O [IPTG]
Genomic SELEX-chip, loss of DNA binding (LacI): level of LacI binding at the lacZ promoter region decreased concomitant with the increased addition of IPTG

CC(=O)N[C@H]1[C@H]([C@H](O)[C@H](O)CO)OC(O)(C(=O)O)C[C@@H]1O (stereo partly shown) [Neu5Ac]
Genomic SELEX-chip, change of DNA-binding specificity (NanR): The binding of NanR to these non-specific sites disappeared in the presence of Neu5Ac
